Where “and” joins values, the source holds several entries; their conditions need not be identical. Equal values may be shown once. Read-outs that look alike come from different tables or passages of the source.
Columns and labels:
[1] = test system: dengue type 2 virus subgenomic replicon (BHK-pD2hRucPac); test: Antiviral (replicon) assay, Renilla luciferase; type: cell-based; conditions: Table 2-1; read-out: Replicon Assay_EC50_M
[2] = molecular target: T1, dengue virus capping enzyme (Dengue virus type 2, UniProt P29990); test: biochemical; type: binding, dengue virus type 2 (strain 16681)
T1 sequence (P29990 2492-2758): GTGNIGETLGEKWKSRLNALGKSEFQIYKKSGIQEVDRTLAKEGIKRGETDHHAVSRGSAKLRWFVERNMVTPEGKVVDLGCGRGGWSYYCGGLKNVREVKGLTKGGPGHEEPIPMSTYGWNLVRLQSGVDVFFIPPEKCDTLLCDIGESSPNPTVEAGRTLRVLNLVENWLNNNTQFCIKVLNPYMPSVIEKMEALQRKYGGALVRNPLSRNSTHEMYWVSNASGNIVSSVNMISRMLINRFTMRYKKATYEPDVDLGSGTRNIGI

BHK-pD2hRucPac cells = test: Cell viability (CellTiter-Glo) in replicon assay; conditions: read-out: Replicon Assay_CC50_M; Table 2-1
[3] = molecular target: yellow fever virus capping enzyme (Yellow fever virus, UniProt P03314); test: biochemical; type: binding, yellow fever virus (strain 17D); conditions: read-out: FP_YF_KI_AVG_YF_M
Chain of yellow fever virus capping enzyme (P03314 2507-2774 limits assumed): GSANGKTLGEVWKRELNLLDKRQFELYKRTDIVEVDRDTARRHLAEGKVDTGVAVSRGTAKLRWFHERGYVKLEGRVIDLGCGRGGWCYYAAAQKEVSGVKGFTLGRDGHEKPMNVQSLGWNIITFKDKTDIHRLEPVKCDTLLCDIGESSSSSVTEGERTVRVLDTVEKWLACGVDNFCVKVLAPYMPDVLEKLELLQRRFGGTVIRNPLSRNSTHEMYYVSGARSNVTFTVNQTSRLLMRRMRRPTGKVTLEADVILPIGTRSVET

SMILES	EC50 [1]	Ki ([2]; read-out: FP_DEN_Ki_AVG_DEN_M) [µM]	CC50 (BHK-pD2hRucPac cells)	Ki [3] [µM]	Ki ([2]; Ki (GTP displacement))	Ki ([2]; read-out: Ki (GTP displacement)) [µM]
COc1ccccc1C=C1SC(=S)N(C(Cc2ccccc2)C(=O)O)C1=O (racemic) [BG101]	42 µM	9	46 µM	8		
O=C(O)C(Cc1ccccc1)N1C(=O)C(=Cc2ccccc2Cl)SC1=S (racemic) [BG135]	39 µM	4	44 µM	5		
CC(C)(C)c1ccc(CC2SC(=S)N(CCC(=O)O)C2=O)cc1 (racemic) [BG296]	167 µM	10	105 µM			
O=C1C(=Cc2cccc(Br)c2)SC(=S)N1CN1CCCCC1 [BG21]		42		27		
O=C(CN1C(=O)/C(=C/c2ccccc2Cl)SC1=S)Nc1ccccc1C(=O)O [BG100]	37 µM	3	49 µM	5		
C=CCOc1ccc(Cl)cc1/C=C1\SC(=S)NC1=O [BG114]	23 µM	2	27 µM	6		
O=C(CN1C(=O)C(=Cc2ccccc2Cl)SC1=S)Nc1ccc(C(=O)O)cc1 [BG119]	42 µM	4	58 µM	5		
O=C(CCN1C(=O)C(=Cc2ccc(Cl)cc2)SC1=S)Nc1ccccc1C(=O)O [BG120]	23 µM	2	31 µM	2		
O=C(CCN1C(=O)C(=Cc2ccc(Cl)cc2)SC1=S)Nc1cccc(C(=O)O)c1 [BG121]	33 µM	3	39 µM	5		
O=C(CCN1C(=O)C(=Cc2ccc(Cl)cc2)SC1=S)Nc1ccc(C(=O)O)cc1 [BG122]	41 µM	3	58 µM	5		
O=C(CN1C(=O)C(=Cc2ccccc2Cl)SC1=S)Nc1cccc(C(=O)O)c1 [BG123]	75 µM	4	103 µM	5		
CCN(CC)c1ccc(N2C(=O)/C(=C/c3ccc(C(=O)O)cc3)SC2=S)cc1 [BG125]		2	15 µM	3		
O=C(O)c1ccccc1/C=C1\SC(=S)N(c2cccc(C(F)(F)F)c2)C1=O [BG129]		11	47 µM	19		
COc1ccc(N2C(=O)/C(=C/c3cc([N+](=O)[O-])cc(OC)c3O)SC2=S)cc1 [BG140]	13 µM		23 µM	2		
COc1cc(C=C2SC(=S)NC2=O)ccc1OS(=O)(=O)c1ccccc1[N+](=O)[O-] [BG141]	24 µM		27 µM	2		
CCc1ccc(C=C2SC(=O)NC2=O)cc1 [BG144]		20		38		
O=C1NC(=O)C(=Cc2cc3c(cc2[N+](=O)[O-])OCO3)S1 [BG145]		8		9		
O=C1NC(=O)C(=Cc2ccccc2[N+](=O)[O-])S1 [BG146]		55		66		
O=C(O)CCN1C(=O)/C(=C/c2ccc(-c3ccc(Cl)cc3Cl)o2)SC1=S [BG177]	30 µM and 26 µM		30 µM and 31 µM	1		

SMILES	EC50 [1]	Ki ([2]; read-out: FP_DEN_Ki_AVG_DEN_M) [µM]	CC50 (BHK-pD2hRucPac cells)	Ki [3] [µM]	Ki ([2]; Ki (GTP displacement))	Ki ([2]; read-out: Ki (GTP displacement)) [µM]
CC(C)c1ccc(C=C2SC(=S)N(CCC(=O)O)C2=O)cc1 [BG183]		12		13		
CC(C)(C)c1ccc(/C=C2\SC(=S)N(CCC(=O)O)C2=O)cc1 [BG184]	46 µM		61 µM			
O=C(O)CCN1C(=O)/C(=C/c2ccc(-c3cccc(Cl)c3)o2)SC1=S [BG188]	51 µM		51 µM			
COc1ccccc1/C=C1\SC(=O)N(CC(=O)O)C1=O [BG215]		866	100 µM			
O=C(O)CN1C(=O)C(=Cc2cc(Br)cc(Cl)c2O)SC1=S [BG222]		≥ 100		≥ 100		
O=C(O)CN1C(=O)/C(=C/c2ccc(F)c(Br)c2)SC1=S [BG224]		27		27		
O=C(O)CN1C(=O)C(=Cc2cc(Cl)cc(Cl)c2O)SC1=S [BG225]		≥ 100		≥ 100		
O=C(O)CN1C(=O)SC(=Cc2ccc(Cl)cc2)C1=O [BG226]				≥ 100		
O=C(O)CN1C(=O)C(=Cc2cccc(Cl)c2Cl)SC1=S [BG227]		27		34		
O=C(O)CN1C(=O)/C(=C/c2ccc(Cl)c(Cl)c2)SC1=S [BG228]		11		16		
O=C(O)CN1C(=O)C(=Cc2ccc(Cl)cc2Cl)SC1=S [BG229]		24		25		
O=C(O)CN1C(=O)C(=Cc2cc(Br)ccc2F)SC1=S [BG230]		17		23		
NC(=O)c1c(NC(=O)CN2C(=O)C(=Cc3ccc(Cl)cc3Cl)SC2=S)sc2c1CCCC2 [BG265]		46				
CCc1ccc(/C=C2\SC(=S)N(CCC(=O)Nc3ccc(C(=O)O)cc3)C2=O)cc1 [BG273]		4				
CCc1ccc(C=C2SC(=S)N(CCC(=O)Nc3ccccc3C(=O)O)C2=O)cc1 [BG274]	63 µM		60 µM			
O=C(O)CCN1C(=O)/C(=C/c2ccc(-c3ccc(Cl)c(Cl)c3)o2)SC1=S [BG281]		2				
O=C(O)CCN1C(=O)C(=Cc2ccc(-c3ccc(Br)cc3)o2)SC1=S [BG286]		≥ 100				
O=C(CCN1C(=O)/C(=C/c2ccccc2Cl)SC1=S)Nc1ccccc1C(=O)O [BG289]	92 µM		79 µM			
O=C(O)CCN1C(=O)/C(=C/c2ccc(-c3ccccc3Cl)o2)SC1=S [BG290]		≥ 100				

SMILES	EC50 [1]	Ki ([2]; read-out: FP_DEN_Ki_AVG_DEN_M) [µM]	CC50 (BHK-pD2hRucPac cells)	Ki [3] [µM]	Ki ([2]; Ki (GTP displacement))	Ki ([2]; read-out: Ki (GTP displacement)) [µM]
O=C(CCN1C(=O)/C(=C/c2cccc(Br)c2)SC1=S)Nc1ccccc1C(=O)O [BG291]	75 µM		68 µM			
O=C(O)CCN1C(=O)C(=Cc2ccc(-c3ccccc3)o2)SC1=S [BG292]		≥ 100				
CC(C)(C)c1ccc(C=C2SC(=S)N(CCC(=O)NS(C)(=O)=O)C2=O)cc1 [BG297]	78 µM	3	86 µM			
COc1cccc(/C=C2\SC(=S)N(CC(=O)O)C2=O)c1OC [BG311]			100 µM	34		
O=C(O)CN1C(=O)C(=CC=Cc2ccccc2)SC1=S [BG326]		77		≥ 100		
COc1ccc(OC)c(/C=C2\SC(=S)N(CC(=O)O)C2=O)c1 [BG-309]		≥ 100	100 µM	≥ 100		
COc1ccccc1C=C1SC(=S)N(CCC(=O)O)C1=O [BG-310]			100 µM	44		
O=C(O)CN1C(=O)/C(=C/c2cccc(Cl)c2Cl)SC1=S [BG-317]					27 µM	
O=C(O)CN1C(=O)/C(=C/c2ccc(Cl)c(Cl)c2)SC1=S [BG-318]					11 µM and 11.3 µM	
O=C(O)CN1C(=O)/C(=C/c2ccc(Cl)cc2Cl)SC1=S [BG-319]					24 µM	
O=C(O)CCN1C(=O)C(=Cc2ccc(F)cc2)SC1=S [BG-321]		≥ 100		≥ 100		
CC(C)c1ccc(/C=C2\SC(=S)N(CCC(=O)O)C2=O)cc1 [BG-322]					12 µM	
O=C(O)CN1C(=O)/C(=C/c2ccccc2)SC1=S [BG-325]		≥ 100		≥ 100		
O=C(O)CCN1C(=O)C(=Cc2ccccc2)SC1=S [BG-327]		≥ 100		≥ 100		
O=C(O)CCN1C(=O)C(=Cc2ccc(Cl)c(Cl)c2)SC1=S [BG-328]		14		12		13.6
O=C(O)CCN1C(=O)/C(=C/c2ccccc2F)SC1=S [BG-329]		≥ 100		≥ 100		
O=C(O)CCCN1C(=O)/C(=C/c2ccc(Cl)cc2Cl)SC1=S [BG-331]		15		25		
COC(=O)CCN1C(=O)C(=Cc2ccc(Cl)cc2Cl)SC1=S [BG-332]		≥ 100		≥ 100		

— US9206412B2, “Thioxothiazolidine inhibitors” (Colorado State University Research Foundation, priority 2012, dated 2015)
